US12077503B2, “Substituted cyclic amides and their use as herbicides” (FMC CORPORATION, priority 2015, dated 2024)

What was measured:
Format in all cases: in vivo
[1] = tested on: barnyardgrass (Echinochloa crus-galli); experiment: Test A preemergence; conditions: Echinochloa crus-galli, pre-emergence, 240 h, preemergence, 0 to 100 scale where 0 is no effect and 100 is complete control, read-out: Barnyardgrass plant response rating; for pest or weed control at 125 g/ha: 125 g ai/ha, approx. 10 d; for pest or weed control at 500 g/ha: 500 g ai/ha
In short: (§1)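 Visual injury, scored on a 0–100 scale relative to untreated controls, was recorded about 10 d after application. Treatments were a preemergence soil spray over planted seeds or a postemergence spray on plants at the one- to two-leaf stage, 2 to 10 cm tall, all in loam soil–sand blend in the greenhouse.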

[2] = tested on: Galium (catchweed bedstraw, Galium aparine); experiment: Test A postemergence; conditions: Galium, post-emergence, 240 h, postemergence; for pest or weed control at 125 g/ha: 125 g ai/ha, visual injury vs untreated controls after approx. 10 d, 0 = no effect, 100 = complete control, read-out: Galium plant response rating (0 to 100 scale); for pest or weed control at 500 g/ha: 500 g ai/ha, 0 to 100 scale, 0 is no effect, 100 is complete control, read-out: Galium plant response rating
In short: as §1

[3] = tested on: Kochia (Kochia scoparia); experiment: Test A postemergence; conditions: Bassia scoparia, post-emergence, 240 h, postemergence; for pest or weed control at 125 g/ha: 125 g ai/ha, visual injury vs untreated controls after approx. 10 d, 0 = no effect, 100 = complete control, read-out: Kochia plant response rating (0 to 100 scale); for pest or weed control at 500 g/ha: 500 g ai/ha, 0 to 100 scale, 0 is no effect, 100 is complete control, read-out: Kochia plant response rating
In short: as §1

[4] = tested on: barnyardgrass (Echinochloa crus-galli); experiment: Test A postemergence; conditions: Echinochloa crus-galli, post-emergence, 240 h, postemergence; for pest or weed control at 125 g/ha: 125 g ai/ha, visual injury vs untreated controls after approx. 10 d, 0 = no effect, 100 = complete control, read-out: Barnyardgrass plant response rating (0 to 100 scale); for pest or weed control at 500 g/ha: 500 g ai/ha, 0 to 100 scale, 0 is no effect, 100 is complete control, read-out: Barnyardgrass plant response rating
In short: as §1

[5] = tested on: blackgrass (Alopecurus myosuroides); experiment: Test A postemergence; conditions: Alopecurus myosuroides, post-emergence, 240 h, postemergence; for pest or weed control at 125 g/ha: 125 g ai/ha, visual injury vs untreated controls after approx. 10 d, 0 = no effect, 100 = complete control, read-out: Blackgrass plant response rating (0 to 100 scale); for pest or weed control at 500 g/ha: 500 g ai/ha, 0 to 100 scale, 0 is no effect, 100 is complete control, read-out: Blackgrass plant response rating
In short: as §1

[6] = tested on: corn (Zea mays); experiment: Test A postemergence; conditions: Zea mays, post-emergence, 240 h, postemergence; for plant injury at 125 g/ha: 125 g ai/ha, visual injury vs untreated controls after approx. 10 d, 0 = no effect, 100 = complete control, read-out: Corn plant response rating (0 to 100 scale); for plant injury at 500 g/ha: 500 g ai/ha, 0 to 100 scale, 0 is no effect, 100 is complete control, read-out: Corn plant response rating
In short: as §1

[7] = tested on: giant foxtail (Setaria faberii); experiment: Test A postemergence; conditions: Setaria faberi, post-emergence, 240 h, postemergence; for pest or weed control at 125 g/ha: 125 g ai/ha, visual injury vs untreated controls after approx. 10 d, 0 = no effect, 100 = complete control, read-out: Foxtail, Giant plant response rating (0 to 100 scale); for pest or weed control at 500 g/ha: 500 g ai/ha, 0 to 100 scale, 0 is no effect, 100 is complete control, read-out: Foxtail, Giant plant response rating
In short: as §1

[8] = tested on: pigweed (Amaranthus retroflexus); experiment: Test A postemergence; conditions: Amaranthus retroflexus, post-emergence, 240 h, postemergence; for pest or weed control at 125 g/ha: 125 g ai/ha, visual injury vs untreated controls after approx. 10 d, 0 = no effect, 100 = complete control, read-out: Pigweed plant response rating (0 to 100 scale); for pest or weed control at 500 g/ha: 500 g ai/ha, 0 to 100 scale, 0 is no effect, 100 is complete control, read-out: Pigweed plant response rating
In short: as §1

[9] = tested on: ragweed (common ragweed, Ambrosia elatior); experiment: Test A postemergence; conditions: Ambrosia artemisiifolia, post-emergence, 240 h, postemergence; for pest or weed control at 125 g/ha: 125 g ai/ha, visual injury vs untreated controls after approx. 10 d, 0 = no effect, 100 = complete control, read-out: Ragweed plant response rating (0 to 100 scale); for pest or weed control at 500 g/ha: 500 g ai/ha, 0 to 100 scale, 0 is no effect, 100 is complete control, read-out: Ragweed plant response rating
In short: as §1

[10] = tested on: ryegrass, Italian (Italian ryegrass, Lolium multiflorum); experiment: Test A postemergence; conditions: Lolium multiflorum, post-emergence, 240 h, postemergence; for pest or weed control at 125 g/ha: 125 g ai/ha, visual injury vs untreated controls after approx. 10 d, 0 = no effect, 100 = complete control, read-out: Ryegrass, Italian plant response rating (0 to 100 scale); for pest or weed control at 500 g/ha: 500 g ai/ha, 0 to 100 scale, 0 is no effect, 100 is complete control, read-out: Ryegrass, Italian plant response rating
In short: as §1

[11] = tested on: wheat (Triticum aestivum); experiment: Test A postemergence; conditions: Triticum aestivum, post-emergence, 240 h, postemergence; for plant injury at 125 g/ha: 125 g ai/ha, visual injury vs untreated controls after approx. 10 d, 0 = no effect, 100 = complete control, read-out: Wheat plant response rating (0 to 100 scale); for plant injury at 500 g/ha: 500 g ai/ha, 0 to 100 scale, 0 is no effect, 100 is complete control, read-out: Wheat plant response rating
In short: as §1

[12] = tested on: barnyardgrass (Echinochloa crus-galli); experiment: Test B flooded paddy test; conditions: Echinochloa crus-galli, 250 g ai/ha, Flood; 0 to 100 scale where 0 is no effect and 100 is complete control; read-out: Barnyardgrass plant response rating
In short: (§2)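 Compound goes directly into floodwater once pots are flooded 3 cm above soil, targeting plants at two leaves; the water depth is then held for the test duration. Plants sit 13–15 d in a greenhouse and are rated visually, 100 denoting complete control.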

[13] = tested on: ducksalad (Heteranthera limosa); experiment: Test B flooded paddy test; conditions: Heteranthera limosa, 250 g ai/ha, Flood; 0 to 100 scale where 0 is no effect and 100 is complete control; read-out: Ducksalad plant response rating
In short: as §2

[14] = tested on: rice (Oryra sativa); experiment: Test B flooded paddy test; conditions: Oryza sativa, 250 g ai/ha, Flood; 0 to 100 scale where 0 is no effect and 100 is complete control; read-out: Rice plant response rating
In short: as §2

[15] = tested on: sedge, umbrella (small-flower umbrella sedge, Cyperus difformis); experiment: Test B flooded paddy test; conditions: Cyperus difformis, 250 g ai/ha, Flood; 0 to 100 scale where 0 is no effect and 100 is complete control; read-out: Sedge, Umbrella plant response rating
In short: as §2

Structure (SMILES)	pest or weed control at 125 g/ha [1] [%]	pest or weed control at 500 g/ha [1] [%]	pest or weed control at 125 g/ha [2] [%]	pest or weed control at 500 g/ha [2] [%]	pest or weed control at 125 g/ha [3] [%]	pest or weed control at 500 g/ha [3] [%]	pest or weed control at 125 g/ha [4] [%]	pest or weed control at 500 g/ha [4] [%]	pest or weed control at 125 g/ha [5] [%]	pest or weed control at 500 g/ha [5] [%]	plant injury at 125 g/ha [6] [%]	plant injury at 500 g/ha [6] [%]	pest or weed control at 125 g/ha [7] [%]	pest or weed control at 500 g/ha [7] [%]	pest or weed control at 125 g/ha [8] [%]	pest or weed control at 500 g/ha [8] [%]	pest or weed control at 125 g/ha [9] [%]	pest or weed control at 500 g/ha [9] [%]	pest or weed control at 125 g/ha [10] [%]	pest or weed control at 500 g/ha [10] [%]	further results
CCc1cc([C@H]2CNC(=O)[C@@H]2C(=O)Nc2cccc(F)c2F)cs1 [Compound 1155]	90	100	40	60	0	0	80	90	0	0	20	30	30	70	0	0	0	40	0	20	plant injury at 125 g/ha [11]: 20%; plant injury at 500 g/ha [11]: 50%; pest or weed control at 250 g/ha [12]: 50%; pest or weed control at 250 g/ha [13]: 100%; pest or weed control at 250 g/ha [14]: 20%; pest or weed control at 250 g/ha [15]: 0%
CCc1cc([C@H]2CN(C)C(=O)[C@@H]2C(=O)Nc2cccc(F)c2F)cs1 [Compound 1157]	90	90	50	60	0	50	90	90	0	50	40	50	90	90	0	0	0	50	0	40	plant injury at 125 g/ha [11]: 30%; plant injury at 500 g/ha [11]: 70%; pest or weed control at 250 g/ha [12]: 55%; pest or weed control at 250 g/ha [13]: 98%; pest or weed control at 250 g/ha [14]: 0%; pest or weed control at 250 g/ha [15]: 0%
CN1CC[C@H](c2cccc(C(F)(F)F)c2)[C@@H](C(=O)Nc2cccc(F)c2Cl)C1=O [Compound 1158]	90	100	20	30	0	0	90	90	20	40	20	60	80	80	0	0	0	0	30	50	plant injury at 125 g/ha [11]: 30%; plant injury at 500 g/ha [11]: 50%; pest or weed control at 250 g/ha [12]: 60%; pest or weed control at 250 g/ha [13]: 80%; pest or weed control at 250 g/ha [14]: 0%; pest or weed control at 250 g/ha [15]: 0%
O=C1NC[C@H](c2cccc(I)c2)[C@H]1C(=O)Nc1ccccc1F [Compound 1160]	90	90	0	60	0	20	80	90	0	50	40	80	80	90	0	0	0	0	20	20	plant injury at 125 g/ha [11]: 20%; plant injury at 500 g/ha [11]: 50%; pest or weed control at 250 g/ha [12]: 0%; pest or weed control at 250 g/ha [13]: 80%; pest or weed control at 250 g/ha [14]: 20%; pest or weed control at 250 g/ha [15]: 0%
